Assay results published in patent US11759480B2, “Compositions and methods for CAR T cell therapy” (ENDOCYTE, INC., priority 2017, dated 2023).

Columns and labels:
MDA-MB-231 tumors [1] = conditions: mouse, in vivo
Description: To evaluate whether mice with FITC-CAR-T therapy related sCRS can be rescued by using competitors which may displace EC17 from either FITC-CAR-T or FR+ tumor cells, 49 NSG mice bearing MDA-MB-231 tumors (150-250 mm3) were administered with excess FITC-CAR-T cells (8 million), 36 of them were then dosed with 500 nmol/kg EC17 48 hours post CAR-T administration, 6 of them were not dosed with EC17 and were used as “No EC17” control, and 7 of them were dosed with 260 umol/kg sodium fluorescein (no EC17 but Fluorescein) to test its toxicity. […] Each group was i.v. injected with 10 umol/kg of Leucovorin, or 10 umol/kg folic acid, or 260 umol/kg sodium fluorescein, or nothing as an un-rescued control. […] Mouse body weight changes were also monitored as the indication of toxicity. […] To evaluate whether the rescue injections affect the anti-tumor activity of FITC-CAR-T cells, these mice were dosed with 500 nmol/kg EC17 twice per week (days 9, 11, 15, 18, 22, 25, etc.) and the tumor size was monitored.

MDA-MB-231 = test: FITC-Folate dose escalation study in vivo (Example 20)
Description: To test whether gradual escalation of FITC-Folate dose can minimize CART cell mediated toxicity without compromising anti-tumor efficacy of CAR T cells, an experiment was designed. A dose of FITC-Folate (0.05 nmole/kg) was introduced first into NSG mice bearing MDA-MB-231 (tumor volume about 50-100 mm^3) along with anti-FITC CAR T cell injections (using about 15×10^6 cells). An additional two doses of about 0.05 nmole/kg FITC-Folate was administered to the mice. […] After a gradual increase of FITC-Folate dose, mice were treated with a 500 nmole/kg dose of FITC-Folate. […] General toxicity of each treatment group was monitored by measuring body weight loss. Tumor volume was measured to monitor anti-FITC CAR T cells' anti-tumor efficacy.

OV90 = test: EC17 dependent anti-tumor activity, OV90 xenograft (Example 26); assay type: in vivo, NSG mice; conditions: 500 nmoles/kg once per week, 5 million CAR-T
Description: Immunodeficient NSG mice (Jackson Laboratory) were used to show the efficacy of CAR T cell anti-tumor activity with a single dose of EC17 per week. Two folate receptor expressing cancer cell lines were used to establish subcutaneous solid tumor xenografts: MDA-MB-231 has high folate receptor expression, while OV90 has low folate receptor expression. When tumor volume of around 100-250 mm^3 was reached, mice were divided into two groups. Mice in the “EC17 500 nmol/kg” group (nmol/kg is equivalent to nmoles/kg as used in this patent application for the bridge) were injected with 500 nmoles/kg of body weight of EC17, while mice in the “no EC17” group were not injected with EC17. Four hours later, mice in both groups were administered 5 million anti-FITC CAR-T cells. After initial administration of EC17 and CAR-T cells, only mice in the “EC17 500 nmol/kg” group were injected (i.v.) with 500 nmoles/kg of EC17 once per week. Anti-tumor efficacy was monitored by tumor volume.

[2] = test system: naïve mice without tumors; test: FITC-CAR-T proliferation, toxicity and cytokines in naïve mice (Example 37); assay type: in vivo
Description: The evaluation of FITC-CAR-T proliferation and related toxicity in both naïve mice and mice bearing FR+ tumor xenografts was tested. To evaluate whether FITC-CAR-T proliferation in vivo is dependent on the co-existence of the bridge (e.g. EC17) and the tumor antigen (e.g. folate receptor), FITC-CAR-T proliferation in vivo was compared in naïve mice and mice bearing FR+ tumor xenografts, either with or without EC17. 5-8 million CAR-T cells (as indicated in FIGS. 42 and 43) were administered (i.v.) into naïve mice without tumors and mice bearing FR+ tumor xenografts (80-200 mm3). 500 nmol/kg EC17 was dosed 4 hours before and three times per week post CAR-T administration, if desired. Mice were monitored for body weight changes and CAR-T cell count in blood circulation; some mice were also euthanized weekly to evaluate organs. […] CAR-T cell count in blood samples was also compared to evaluate CAR-T proliferation. […] Since the enlargement of spleen size is another indicator for CAR-T proliferation in vivo, spleen size was also measured as shown in FIG. 43B. […]
Cytokine levels including IFN were measured using LEGENDplex human cytokine panel kits (BioLegend, San Diego, Calif.) according to the manufacturer's instructions. Plasma samples were diluted with Assay Buffer, and then mixed with Capture beads immobilized with the antibody directed to the analyzed cytokine. After 2 hours incubation at room temperature with shaking, biotinylated Detection antibody to the analyzed cytokine was added and incubated for one more hour at room temperature with shaking. Phycoerythrin (PE) labeled streptavidin was then added to bind with biotin on the Detection antibody, and FACS was used to read the signal of PE on the binding complex (capture antibody-cytokine-detection antibody). The intensity of PE is proportional to the level of analyzed cytokine. A series of cytokine solutions with known concentrations were measured at the same time and used as standards to quantitate the cytokine levels in the analyzed samples.

[3] = test system: MDA-MB-231 solid tumor xenografts; test: Control of CAR T cell activation in vivo: break, FA competitor or both (Example 19); conditions: 15×10^6 CAR T cells + FITC-Folate 500 nmole/kg every other day
Description: Five study groups were designed to test whether anti-FITC CAR T cell activation can be controlled via temporal termination of FITC-ligands, by administering a competitor small molecule, or a combination approach of both discontinuing of FITC-ligands and/or administering an FA competitor. The first group was treated by administering anti-FITC CAR T cell with phosphate-buffered saline (PBS) as a negative control. Every other day over the course of the study, the second, third, fourth and fifth groups were treated with anti-FITC CAR T cell mixed with FITC-Folate (500 nmole/kg). […] Mouse bodyweight was measured regularly to test for toxicity.

MDA-MB-231 tumors [4] = test: IFN-γ in blood versus EC17 dose level and presence of tumor (Example 24); assay type: in vivo, mice; conditions: 10 days after CAR-T injection, EC17 three times per week
Description: CAR-T cells were injected into naïve mice (8 million per mouse) and mice bearing MDA-MB-231 tumors (5 million per mouse). Various levels of EC17 were administrated three times per week. IFN-γ in blood was measured 10 days after CAR-T cell injection.

HEK293-FRa = test: FITC-CAR-T/EC17 therapy, HEK293-FRa model (Example 28); assay type: in vivo, NSG mice; conditions: 500 nmol/kg weekly, 5 million FITC-CAR-T
Description: To test whether FITC-CAR-T/EC17 therapy has anti-tumor activity in various FR+ tumor models, NSG mice were subcutaneously implanted with MDA-MB-231 (triple negative breast cancer cell line), OV90 (human ovarian cancer cell line), KB (human cervical adenocarcinoma cell line), SKOV-3 (human ovarian carcinoma cell line), or HEK293-FRa (HEK293 stably-transfected with human FRa). When tumor size reached […], one dose of EC17 at 500 nmol/kg of body weight was injected by tail vein followed with administering of 5 million FITC-CAR-T cells 4 hours later. 500 nmol/kg EC17 was dosed once every week after the initial EC17/CAR-T administration (about day 7), tumor size and body weights of mice were monitored three times per week. The EC17 dosing days were labeled as green dashed vertical lines in the graph. […] EC17 dose-dependent temporary body weight loss was also observed in all tumor bearing mice, indicating the activation of CAR-Ts is EC17-dependent in these mice.

SMILES	condition of mice (toxicity test) (MDA-MB-231 tumors [1])	effect on CAR T cells' anti-tumor efficacy (MDA-MB-231; gradual escalation)	toxicity (MDA-MB-231; gradual escalation 0.05 to 500 nmole/kg, 15×10^6 CAR T cells)	anti-tumor activity (OV90)	cytokine production (CAR-T activity) ([2]; 500 nmol/kg three times per week)	body weight ([2]; 500 nmol/kg three times per week or no EC17)	FITC-CAR-T proliferation ([2]; 5 or 8 million FITC-CAR-T cells)	weight loss (serious CAR T cell mediated toxicity) [3]	cytokine production (IFN-γ in blood) (MDA-MB-231 tumors [4])	tumor response (HEK293-FRa)
O=C([O-])c1ccccc1-c1c2ccc(=O)cc-2oc2cc([O-])ccc12.[Na+].[Na+] [sodium fluorescein]	healthy									
Nc1nc2ncc(CNc3ccc(C(=O)NC(CCC(=O)NCCNC(=S)Nc4ccc(-c5c6ccc(=O)cc-6oc6cc(O)ccc56)c(C(=O)O)c4)C(=O)O)cc3)nc2c(=O)[nH]1 (stereo not shown) [EC17, FITC-Folate]		did not negatively affect	no serious toxicity	EC17 dependent anti-tumor activity	not active in naïve mice	did not show any apparent body weight loss	did not proliferate in naïve mice	> 10%	dependent on both the bridge (EC17) dose level and the presence of the tumor	progressive disease
